Among the data in US20210024507A1, “Compounds” (Step Pharma S.A.S., priority 2018, published 2021) are IC50 values, retold here.

Each structure is given as a SMILES string.

The experiment addresses T1, human CTPS1 (Homo sapiens, UniProt P17812).
T1 construct: purchased Proteros biostructures GmbH
T1 sequence (P17812 1-591): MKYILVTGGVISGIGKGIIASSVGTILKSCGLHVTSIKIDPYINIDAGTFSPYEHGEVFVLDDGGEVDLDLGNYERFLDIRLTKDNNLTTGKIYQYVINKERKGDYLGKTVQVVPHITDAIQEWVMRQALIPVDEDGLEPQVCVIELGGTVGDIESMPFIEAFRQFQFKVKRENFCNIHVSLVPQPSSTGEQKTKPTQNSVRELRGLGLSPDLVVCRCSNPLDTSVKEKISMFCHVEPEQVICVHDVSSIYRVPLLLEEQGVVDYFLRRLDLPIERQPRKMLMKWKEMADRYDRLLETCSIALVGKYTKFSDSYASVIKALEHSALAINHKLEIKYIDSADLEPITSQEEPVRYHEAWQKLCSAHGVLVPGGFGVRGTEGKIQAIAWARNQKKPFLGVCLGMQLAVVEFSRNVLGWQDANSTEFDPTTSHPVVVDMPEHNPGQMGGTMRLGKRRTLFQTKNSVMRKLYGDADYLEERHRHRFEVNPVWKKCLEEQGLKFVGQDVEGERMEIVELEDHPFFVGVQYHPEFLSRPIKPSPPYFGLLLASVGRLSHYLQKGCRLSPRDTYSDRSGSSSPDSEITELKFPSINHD
Nature of the experiment: Human CTPS1 enzyme inhibition (ADP-Glo Max assay). Type of experiment: biochemical. The following applies: human full length CTPS1, 25° C., read-out: CTPS1 (Human CTPS1 Enzyme Inhibition, IC50 grouped by potency range). Here is the method:
The enzyme inhibitory activities of compounds invented against the target of interest were determined using the ADP-GIoTM Max assay (Promega, UK). Assays for human CTPS1 were performed in lx assay buffer containing 50mM Tris, 10mM MgCl2, 0.01% Tween-20, pH to 8.0 accordingly. Finally, immediately before use, L-cysteine was added to the lx assay buffer to a final concentration of 2mM. All reagents are from Sigma-Aldrich unless specified otherwise. Human full length active C-terminal FLAG-Hiss-tag CTPS1 (UniProtKB - P17812, CTPS[1-591]-[…]) was obtained from Proteros biostructures GmbH.
Assay Procedure 3× human CTPS1 protein was prepared in lx assay buffer to the final working protein concentration required for the reaction. A 2uL volume per well of 3x human CTPS1 protein was mixed with 2uL per well of 3× test compound (compound prepared in lx assay buffer to an appropriate final 3× compound concentration respective to the concentration response curve designed for the compounds under test) for 10 minutes at 25° C. The enzymatic reaction was then initiated by addition of a 2uL per well volume of a pre-mixed substrate mix (UltraPure ATP from ADP-GIo™ Max kit (0.31mM), GTP (0.034mM), UTP (0.48mM) and L-glutamine (0.186mM)) and the mixture was incubated for an appropriate amount of time within the determined linear phase of the reaction at 25° C. under sealed plate conditions with constant agitation at 500 revolutions per minute (rpm). ADP-GIo™ Max reagent was added for 60 minutes ([…] per well) and subsequently ADP-GIo™ Max development reagent was added for 60 minutes (12uL per well) prior to signal detection in a microplate reader (EnVision® Multilabel Reader, Perkin Elmer). Following each reagent addition over the course of the assay, assay plates were pulse centrifuged for 30 seconds at 500rpm.
In all cases, the enzyme converts ATP to ADP and the ADP-GIo™ Max reagent subsequently depletes any remaining endogenous ATP in the reaction system. The ADP-GIo™ Max detection reagent converts the ADP that has been enzymatically produced back into ATP and using ATP as a substrate together with luciferin for the enzyme luciferase, light is generated which produces a detectable luminescence. […] The percentage inhibition produced by each concentration of compound was calculated using the equation shown below: […]
Percentage inhibition was then plotted against compound concentration, and the 50% inhibitory concentration (IC50) was determined from the resultant concentration-response curve.
A general note: In ADP-Glo the light output rises with the ADP produced.
Take `CCC(C(=O)Nc1ccc(-c2cccnc2)cc1)c1ccnc(NS(=O)(=O)C2CC2)n1` (centres unmarked) [P102, 2-(2-(cyclopropanesulfonamido)pyrimidin-4-yl)-N-(4-(pyridin-3-yl)phenyl)butanamide]: the IC50 fell in the range of 100 to 1000 nM.
To `CCOc1cncc(-c2ccc(C(=O)NC(CC)c3ccnc(NS(=O)(=O)C4CC4)n3)c(C(F)(F)F)c2)n1` (centres unmarked) [P215, N-(1-(2-(cyclopropanesulfonamido)pyrimidin-4-yl)propyl)-4-(6-ethoxypyrazin-2-yl)-2-(trifluoromethyl)benzamide] belongs 100 to 1000 nM; to `CC(C(=O)Nc1ccc(-c2cccnc2)cc1)c1ccnc(NS(=O)(=O)C2CC2)n1` (centres unmarked) [P111, 2-(2-(cyclopropanesulfonamido)pyrimidin-4-yl)-N-(4-(pyridin-3-yl)phenyl)propanamide], 100 to 1000 nM; to `CCOc1cncc(-c2ccc(C(=O)NC(CC)c3ccnc(NS(=O)(=O)C4CC4)n3)nc2)n1` (centres unmarked) [P210, N-(1-(2-(cyclopropanesulfonamido)pyrimidin-4-yl)propyl)-5-(6-ethoxypyrazin-2-yl)picolinamide], 100 to 1000 nM.
Take `CCC(C(=O)Nc1ccc(-c2cncc(OC(C)C)n2)cc1)c1ccnc(NS(=O)(=O)C2CC2)n1` (centres unmarked) [P107, 2-(2-(cyclopropanesulfonamido)pyrimidin-4-yl)-N-(4-(6-isopropoxypyrazin-2-yl)phenyl)butanamide]: the IC50 is not above 100 nM.
For `CCOc1cncc(-c2ccc(C(=O)NC(C)(CC)c3ccnc(NS(=O)(=O)C4CC4)n3)c(F)c2)n1` (centres unmarked) [P220, N-(2-(2-(cyclopropanesulfonamido)pyrimidin-4-yl)butan-2-yl)-4-(6-ethoxypyrazin-2-yl)-2-fluorobenzamide], the IC50 lay within 100 to 1000 nM.
As for `CCC(C(=O)Nc1ccc(-c2cncc(OCC(F)(F)F)c2)cc1F)c1ccnc(NS(=O)(=O)C2CC2)n1` (centres unmarked) [P91, 2-(2-(cyclopropanesulfonamido)pyrimidin-4-yl)-N-(2-fluoro-4-(5-(2,2,2-trifluoroethoxy)pyridin-3-yl)phenyl)butanamide], the IC50 lay in the range of 100 to 1000 nM.
To `CCC(C(=O)Nc1ccc(-c2cccnc2)cn1)c1ccnc(NS(=O)(=O)C2CC2)n1` (centres unmarked) [P86, N-([3,3′-bipyridin]-6-yl)-2-(2-(cyclopropanesulfonamido)pyrimidin-4-yl)butanamide] belongs 1000 to 10000 nM; to `CCC(NC(=O)c1ccc(-c2cncc(Cl)c2)cc1F)c1ccnc(NS(=O)(=O)C2CC2)n1` (centres unmarked) [P212, 4-(5-chloropyridin-3-yl)-N-(1-(2-(cyclopropanesulfonamido)pyrimidin-4-yl)propyl)-2-fluorobenzamide], 100 to 1000 nM; to `CCC(C(=O)Nc1ccc(-c2cncc(OC(C)C)n2)cc1F)c1ccnc(NS(=O)(=O)C2CC2)n1` (centres unmarked) [P97, 2-(2-(cyclopropanesulfonamido)pyrimidin-4-yl)-N-(2-fluoro-4-(6-isopropoxypyrazin-2-yl)phenyl)butanamide], not above 100 nM.
To `CCC(C(=O)Nc1ccc(-c2cncc(C(F)(F)F)n2)cc1F)c1ccnc(NS(=O)(=O)C2CC2)n1` (centres unmarked) [P94, 2-(2-(cyclopropanesulfonamido)pyrimidin-4-yl)-N-(2-fluoro-4-(6-(trifluoromethyl)pyrazin-2-yl)phenyl)butanamide] belongs not above 100 nM; to `CCC(C(=O)Nc1ccc(-c2cnccn2)cc1F)c1ccnc(NS(=O)(=O)C2CC2)n1` (centres unmarked) [P6, 2-(2-(Cyclopropanesulfonamido)pyrimidin-4-yl)-N-(2-fluoro-4-(pyrazin-2-yl)phenyl)butanamide], 100 to 1000 nM; to `CCC(C(=O)Nc1ccc(-c2cncc(OCC(F)(F)F)c2)cc1)c1ccnc(NS(=O)(=O)C2CC2)n1` (centres unmarked) [P100, 2-(2-(cyclopropanesulfonamido)pyrimidin-4-yl)-N-(4-(5-(2,2,2-trifluoroethoxy)pyridin-3-yl)phenyl)butanamide], 100 to 1000 nM.
The same measure for `CCOc1cncc(-c2ccc(C(=O)NC(CC)c3ccnc(NS(=O)(=O)C4CC4)n3)cc2)n1` (centres unmarked) [P219, N-(1-(2-(cyclopropanesulfonamido)pyrimidin-4-yl)propyl)-4-(6-ethoxypyrazin-2-yl)benzamide]: 100 to 1000 nM.
In the case of `CCOc1cncc(-c2ccc(C(=O)NC(CC)c3cncc(NS(=O)(=O)C4CC4)n3)c(F)c2)n1` (single isomer, unassigned) [P224, N-(1-(6-(cyclopropanesulfonamido)pyrazin-2-yl)propyl)-4-(6-ethoxypyrazin-2-yl)-2-fluorobenzamide], the 50% inhibitory concentration (IC50) fell in the range of 100 to 1000 nM.
For `CCOc1cncc(-c2ccc(NC(=O)C(C)(OC)c3cncc(NS(=O)(=O)C4CC4)n3)nc2)n1` (centres unmarked) [P205, 2-(6-(cyclopropanesulfonamido)pyrazin-2-yl)-N-(5-(6-ethoxypyrazin-2-yl)pyridin-2-yl)-2-methoxypropanamide], the IC50 is not above 100 nM.
Take `CCC(C(=O)Nc1ccc(-c2cncc(Cl)c2)cc1F)c1ccnc(NS(=O)(=O)C2CC2)n1` (centres unmarked) [P90, N-(4-(5-chloropyridin-3-yl)-2-fluorophenyl)-2-(2-(cyclopropanesulfonamido)pyrimidin-4-yl)butanamide]: the IC50 lay within 100 to 1000 nM.
Take `CCC(C(=O)Nc1ccc(-c2cncc(OC(C)C)c2)cc1)c1ccnc(NS(=O)(=O)C2CC2)n1` (centres unmarked) [P101, 2-(2-(cyclopropanesulfonamido)pyrimidin-4-yl)-N-(4-(5-isopropoxypyridin-3-yl)phenyl)butanamide]: the IC50 is 100 to 1000 nM.
To `CCOc1cncc(-c2ccc(C(=O)NC(CC)c3cncc(NS(=O)(=O)C4CC4)n3)c(F)c2)n1` (centres unmarked) [P223, N-(1-(6-(cyclopropanesulfonamido)pyrazin-2-yl)propyl)-4-(6-ethoxypyrazin-2-yl)-2-fluorobenzamide] belongs 100 to 1000 nM; to `CCC(C(=O)Nc1ccc(-c2cncc(OCC(F)(F)F)c2)cn1)c1ccnc(NS(=O)(=O)C2CC2)n1` (centres unmarked) [P85], 100 to 1000 nM.
On to `CCC(C(=O)Nc1ccc(-c2cncc(OC(C)C)c2)cc1F)c1ccnc(NS(=O)(=O)C2CC2)n1` (centres unmarked) [P92, 2-(2-(cyclopropanesulfonamido)pyrimidin-4-yl)-N-(2-fluoro-4-(5-isopropoxypyridin-3-yl)phenyl)butanamide], for which the IC50 lay in the range of 100 to 1000 nM.
The same measure for `CCOc1cncc(-c2ccc(NC(=O)C(OC)c3cncc(NS(=O)(=O)C4CC4)n3)nc2)n1` (centres unmarked) [P203, 2-(6-(cyclopropanesulfonamido)pyrazin-2-yl)-N-(5-(6-ethoxypyrazin-2-yl)pyridin-2-yl)-2-methoxyacetamide]: not above 100 nM; for `CCOc1cncc(-c2ccc(NC(=O)C(OC)c3cncc(NS(=O)(=O)C4CC4)n3)cc2)n1` (centres unmarked) [P204, 2-(6-(cyclopropanesulfonamido)pyrazin-2-yl)-N-(4-(6-ethoxypyrazin-2-yl)phenyl)-2-methoxyacetamide]: not above 100 nM.
To `CCC(C(=O)Nc1ccc(-c2cncc(C(F)(F)F)c2)cc1)c1ccnc(NS(=O)(=O)C2CC2)n1` (centres unmarked) [P7, 2-(2-(Cyclopropanesulfonamido)pyrimidin-4-yl)-N-(4-(5-(trifluoromethyl)pyridin-3-yl)phenyl)butanamide] belongs 100 to 1000 nM; to `CCC(NC(=O)c1ccc(-c2cncc(C(F)(F)F)c2)cc1)c1ccnc(NS(=O)(=O)C2CC2)n1` (centres unmarked) [P213, N-(1-(2-(cyclopropanesulfonamido)pyrimidin-4-yl)propyl)-4-(5-(trifluoromethyl)pyridin-3-yl)benzamide], 100 to 1000 nM; to `CCC(C(=O)Nc1ccc(-c2cncc(Cl)c2)cc1)c1cccc(NS(=O)(=O)C2CC2)n1` (centres unmarked) [P189, N-(4-(5-chloropyridin-3-yl)phenyl)-2-(6-(cyclopropanesulfonamido)pyridin-2-yl)butanamide], 1000 to 10000 nM.

Broadly, the IC50 is the concentration at which inhibition is half-maximal.
